Assays:
[1] = Dispersion in water and its stability after vigorous shaking, de-gassed versus gassed (turbidity, visual); format: physicochemical; conditions: for time the dispersion is maintained / stable: de-gassed mixture in water after vigorous shaking, no added dispersants; for quality of dispersion in water (turbidity / visual): de-gassed; for quality of dispersion in water (turbidity / visual) / quality of dispersion in water (visual): after vigorous shaking; for quality of dispersion in water (visual): gassed
Method: (§1) The enhancement of oil droplet dispersion in water is most easily monitored using turbidity measurements. This enhancement can be measured by the difference between the new system (degassed) and the gassed blank, following vigorous shaking. […] Turbidity is a measure of how many droplets are dispersed in a given phase and is measured in NTU (nephelometric turbidity units) and in the results presented here is measured by light scattering. To give an understanding of the magnitude of these turbidity values, distilled water has a turbidity of 0.02 NTU, while tap water has a value of 1-2 NTU. Although useful, NTU measurements are of limited value and the results can be inaccurate if the refractive index of the dispersed phase is close to that of the dispersing phase (such as with perfluorocarbons in water) and so in some cases dynamic light scattering (DLS) has been used to obtain the droplet size distribution, as well as the charge on the oil droplets. However, careful interpretation of the DLS results is required for poly-disperse samples. Mono-disperse samples show size distribution by volume graphs (see later) over similar size ranges to the Z-average (diameter) and have a small PDI value (poly-dispersity index). The magnitude of the PDI is a measure of poly-dispersity. For poly-disperse samples the Z-average is the best estimate of average droplet size.
(§2) Mixtures of oil and water were de-gassed by a process of repeated freezing in liquid nitrogen, followed by pumping down to a pressure of 0.01 mbar and then melting in a sealed tube. The dissolved gas produced on each melting cycle was removed on re-freezing. Although this process was carried out five times, typically no further de-gassing on melting was observed after 3-4 cycles. […] (It should be noted that membrane separators and vacuum towers are used to de-gas liquids commercially.)
(§3) Dispersion of oil in water was achieved by vigorous shaking of the mixture for 8 sec in a sealed Pyrex tube. Turbidity was measured using an HF Scientific Micro 100 Turbidimeter. Particle sizes and zeta potentials were measured using a Malvern Zetasizer.

[2] = cited from earlier work; for Surface tension: against air; for Interfacial tension: against water
[3] = Zeta potential of oil droplets (Malvern Zetasizer); format: physicochemical; conditions: de-gassed mixture in water
Method: as §2, §3

[4] = Theoretical water droplet contact angle on the oil surface (Young's wetting equation); format: physicochemical; conditions: calculated by Young's wetting equation
Method: This can be attributed to the fact that the more soluble oils undergo Ostwald ripening, allowing rapid oil droplet growth. The more hydrophobic an oil the better it is for use in methods described herein as Ostwald ripening cannot occur. A degree of hydrophobicity can be estimated by applying the Young's wetting equation to a theoretical liquid/liquid drop profile. A theoretical water droplet contact angle on the oil surface can be calculated, and if this angle is higher than about 80°, preferably higher than 90° then the oil is sufficiently hydrophobic. For example, for dodecane, the theoretical droplet contact angle is 110°. However, it should be noted that selection of a suitable carrier liquid or oil according to theoretical contact angles is a guide only and that liquids or oils having a theoretical contact angle of about 80° are not necessarily less preferred than those having a higher theoretical contact angle.

[5] = Droplet size distribution of oil-in-water dispersions by dynamic light scattering (Malvern Zetasizer); format: physicochemical; conditions: 0.2 ml/25 ml water
Method: as §1, §2, §3

Row | Compound | time the dispersion is maintained / stable [1] | quality of dispersion in water (turbidity / visual) [1] | Surface tension [2] | Interfacial tension [2] | Theoretical contact angle (water droplet on oil surface) [4] | further results
1 | CC(C)c1cccc(C(C)C)c1O [Propofol, 2,6-diisopropyl phenol] | many hours | complete dispersion of the oil |  |  |  | effect of added salt on the dispersion ([1]; de-gassed dispersion exposed to high salt levels, above those found in human blood): unaffected by the addition of salt; quality of dispersion in water (visual) [1]: many large, visible droplets of the oil
2 | FC(F)(F)C(F)(F)C(F)(F)C(F)(F)C(F)(F)C(F)(F)C(F)(F)C(F)(F)Br [Perflubron, perfluorooctyl bromide] | many hours | enhanced dispersion due to de-gassing is observed | 18 mN/m | 47 mN/m | 113° | zeta potential of droplets [3]: −42 mV; average droplet diameter ([5]; de-gassed, 1 hour after vigorous shaking): about 0.6 microns; PDI (poly-dispersity index) ([5]; de-gassed, at one hour): 0.430; Z-average size ([5]; de-gassed, at one hour): 599.6 nm; droplet size of size graph (Diam) ([5]; de-gassed, at one hour): 437.6 nm; PDI (poly-dispersity index) ([5]; gassed, after 1 hour): 0.674; Z-average size ([5]; gassed, at one hour): 1176 nm
3 | COC1=CC(=O)C[C@@H](C)[C@]12Oc1c(Cl)c(OC)cc(OC)c1C2=O [griseofulvin] |  | clearly well dispersed |  |  |  | turbidity after dispersion by vigorous shaking ([1]; 0.05 g dissolved in 10 ml soybean oil, 0.2 ml of this dispersed in 25 ml water): the same as those obtained for soybean oil alone; quality of dispersion in water (visual) [1]: solid clumps and a more transparent solution
4 | CCCCCCCCCCCC [dodecane, reference compound] |  |  |  |  | 110 ° | 
5 | FC(F)(F)C(F)(F)C(F)(F)C(F)(F)C(F)(F)C(F)(F)F [C6F14, perfluorohexane] | many hours | readily dispersed | 11.91 mN/m | 38 mN/m | 111° ^ | time to phase separation after vigorous shaking ([1]; gassed mixture, 0.2 ml/25 ml water): less than a minute
6 | FC(F)(F)C(F)(F)C(F)(F)C(F)(F)C(F)(F)C(F)(F)C(F)(F)F [C7F16, perfluoroheptane] |  |  | 12.85 mN/m | 39.7 mN/m | 112°^ | 
7 | FC(F)(F)C(F)(F)C(F)(F)C(F)(F)C(F)(F)C(F)(F)C(F)(F)C(F)(F)F [C8F18, perfluorooctane] |  |  | 14.00 mN/m | 42 mN/m | 113° ^ | 

Reference: patent publication US20070213411A1, “Dispersions And Methods Of Preparing Them” (The Australian National University, priority 2003, published 2007)
